Data as given in patent publication EP4567035A1, “NOVEL COMPOUND AS HYPOXIA-INDUCIBLE FACTOR 1(HIF-1) INHIBITOR OR VASCULAR ENDOTHELIAL GROWTH FACTOR (VEGF) INHIBITOR, AND PHARMACEUTICAL COMPOSITION COMPRISING SAME” (Nextgen Bioscience Co., Ltd., priority 2022, dated 2024).

Key:
HIF-1α = molecular target: T1, HIF-1α (Homo sapiens, UniProt Q16665); test: Analysis of HIF-1α protein expression (Western blot) in ARPE-19 cells under mixed hypoxic condition; type: cell-based; conditions: values marked * in the table, mixed hypoxic condition (1% oxygen + CoCl2) for 24 hours, concentration range at which HIF-1α expression is reduced by 50% vs untreated control, read-out: IC50 HIF-1α, Hypoxia(24h)
T1 construct: endogenous in cells; host or cells: ARPE-19 (ATCC CRL-2302)
Summary of the method: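 ARPE-19 cells were pretreated 16 h or 2 h with compound (0.1 nM–10 µM, serum-free DMEM/F12), then held 1 h or 24 h in mixed hypoxia (1% O2 plus CoCl2). HIF-1α was quantified by Western blot against β-actin; the concentration range giving ≥50% reduction vs untreated control was reported.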

VEGF = test: Evaluation of VEGF protein secretion level (Human VEGF ELISA) in ARPE-19 cell medium under hypoxic conditions; type: cell-based; conditions: ARPE-19 cells; pretreated 2 hours, 24 hours hypoxic conditions; secreted VEGF in medium supernatant by ELISA; concentration range reducing VEGF by 50% vs untreated control; read-out: IC50 VEGF
Summary of the method: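 Human ARPE-19 cells were pretreated 2 h with compound (0.1 nM–10 µM, in DMEM/F12 with 1% FBS), then held 24 h in hypoxia (1% O2, 5% CO2). Secreted VEGF in the supernatant was quantified by ELISA (A450). The value is the concentration range giving ≥50% VEGF reduction versus untreated control.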

T1 sequence (Q16665 whole entry): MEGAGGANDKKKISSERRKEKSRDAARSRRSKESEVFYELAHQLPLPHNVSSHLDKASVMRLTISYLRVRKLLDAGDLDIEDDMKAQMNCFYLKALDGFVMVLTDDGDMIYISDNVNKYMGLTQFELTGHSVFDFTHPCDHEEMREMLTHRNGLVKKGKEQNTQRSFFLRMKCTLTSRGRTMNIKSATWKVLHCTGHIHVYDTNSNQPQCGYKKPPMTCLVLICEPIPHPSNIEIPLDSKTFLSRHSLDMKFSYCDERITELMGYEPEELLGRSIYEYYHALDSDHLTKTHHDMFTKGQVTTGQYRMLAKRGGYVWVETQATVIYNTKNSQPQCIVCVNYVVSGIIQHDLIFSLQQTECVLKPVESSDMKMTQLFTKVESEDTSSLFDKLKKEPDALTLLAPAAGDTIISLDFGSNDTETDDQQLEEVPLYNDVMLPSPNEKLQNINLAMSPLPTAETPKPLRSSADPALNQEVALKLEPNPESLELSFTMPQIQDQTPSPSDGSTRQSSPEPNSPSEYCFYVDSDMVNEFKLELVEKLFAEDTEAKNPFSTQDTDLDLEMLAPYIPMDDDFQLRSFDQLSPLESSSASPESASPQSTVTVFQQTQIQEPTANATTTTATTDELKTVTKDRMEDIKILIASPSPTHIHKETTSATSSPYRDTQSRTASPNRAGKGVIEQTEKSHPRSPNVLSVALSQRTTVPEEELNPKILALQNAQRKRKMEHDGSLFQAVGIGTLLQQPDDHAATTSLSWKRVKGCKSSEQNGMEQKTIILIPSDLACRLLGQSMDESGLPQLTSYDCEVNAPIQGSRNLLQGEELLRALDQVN

O=C(NCc1ccc(-c2cnn(-c3ccc(F)cc3)c2)cc1)c1ncnc2nc(C3CCCC3)[nH]c12 [Example 108, 8-Cyclopentyl-N-(4-(1-(4-fluorophenyl)-1H-pyrazol-4-yl)benzyl)-7H-purine-6-carboxamide]
DC50 (HIF-1α): > 10 µM | IC50 (VEGF): > 10 µM

O=C(NCc1ccc(-c2cnn(-c3ccc(F)cc3)c2)c(F)c1)c1ncnc2nc(C3CCCC3)[nH]c12 [Example 109, 8-Cyclopentyl-N-(3-fluoro-4-(1-(4-fluorophenyl)-1H-pyrazol-4-yl)benzyl)-7H-purine-6-carboxamide]
DC50 (HIF-1α): > 10 µM | IC50 (VEGF): > 10 µM

O=C(NCc1cc(F)cc(-c2cnn(-c3ccc(F)cc3)c2)c1)c1ncnc2nc(C3CC4(CC4)C3)[nH]c12 [Example 111, N-(3-fluoro-5-(1-(4-fluorophenyl)-1H-pyrazol-4-yl)benzyl)-8-(spiro[2.3]hexan-5-yl)-7H-purine-6-carboxamide]
DC50 (HIF-1α): < 0.1 µM | IC50 (VEGF): 0.1 to 1 µM

CN(Cc1cc(F)cc(-c2cnn(-c3ccc(F)cc3)c2)c1)C(=O)c1ncnc2nc(C3CCCC3)[nH]c12 [Example 112, 8-Cyclopentyl-N-(3-fluoro-5-(1-(4-fluorophenyl)-1H-pyrazol-4-yl)benzyl)-N-methyl-7H-purine-6-carboxamide]
DC50 (HIF-1α): > 10 µM | IC50 (VEGF): > 10 µM

O=C(NCc1cc(F)cc(-c2cnn(-c3ccc(F)cc3)c2)c1)c1ncnc2nc(C3CC4CC4C3)[nH]c12 (stereo not drawn) [Example 113, 8-(Bicyclo[3.1.0]hexan-3-yl)-N-(3-fluoro-5-(1-(4-fluorophenyl)-1H-pyrazol-4-yl)benzyl)-7H-purine-6-carboxamide]
DC50 (HIF-1α): < 0.1 µM | IC50 (VEGF): 0.1 to 1 µM

O=C(NCc1cc(F)cc(-c2cnn(-c3ccc(F)cc3)c2)c1)c1ncnc2nc(C3CC4CCC3C4)[nH]c12 (stereo not drawn) [Example 114, 8-(Bicyclo[2.2.1]heptan-2-yl)-N-(3-fluoro-5-(1-(4-fluorophenyl)-1H-pyrazol-4-yl)benzyl)-7H-purine-6-carboxamide]
DC50 (HIF-1α): 0.1 to 1 µM | IC50 (VEGF): 0.1 to 1 µM

O=C(NCc1cc(F)cc(-c2cnn(-c3ccc(F)cc3)c2)c1)c1ncnc2nc(C34CCC(C3)C4)[nH]c12 [Example 115, 8-(Bicyclo[2.1.1]hexan-1-yl)-N-(3-fluoro-5-(1-(4-fluorophenyl)-1H-pyrazol-4-yl)benzyl)-7H-purine-6-carboxamide]
DC50 (HIF-1α): 0.1 to 1 µM | IC50 (VEGF): 0.1 to 1 µM

O=C(NCc1cc(F)cc(-n2cc(-c3ccc(F)cc3)nn2)c1)c1ncnc2nc(C3CCCC3)[nH]c12 [Example 116, 8-Cyclopentyl-N-(3-fluoro-5-(4-(4-fluorophenyl)-1H-1,2,3-triazol-1-yl)benzyl)-7H-purine-6-carboxamide]
DC50 (HIF-1α): 0.1 to 1 µM | IC50 (VEGF): > 10 µM

O=C(NCc1cc(F)cc(-c2cnn(-c3ccsc3)c2)c1)c1ncnc2nc(C3CCCC3)[nH]c12 [Example 117, 8-Cyclopentyl-N-(3-fluoro-5-(1-(thiophen-3-yl)-1H-pyrazol-4-yl)benzyl)-7H-purine-6-carboxamide]
DC50 (HIF-1α): < 0.1 µM | IC50 (VEGF): 0.1 to 1 µM

Cn1ccc(Nc2cc(F)cc(CNC(=O)c3ncnc4nc(C5CCCC5)[nH]c34)c2)n1 [Example 118, 8-Cyclopentyl-N-(3-fluoro-5-((1-methyl-1H-pyrazol-3-yl)amino)benzyl)-7H-purine-6-carboxamide]
DC50 (HIF-1α): < 0.1 µM | IC50 (VEGF): 0.1 to 1 µM

O=C(NCc1cc(F)cc(-c2cn(-c3ccc(F)cc3)nn2)c1)c1ncnc2nc(C3CCCC3)[nH]c12 [Example 119, 8-Cyclopentyl-N-(3-fluoro-5-(1-(4-fluorophenyl)-1H-1,2,3-triazol-4-yl)benzyl)-7H-purine-6-carboxamide]
DC50 (HIF-1α): 0.1 to 1 µM | IC50 (VEGF): > 10 µM

O=C(NCc1cc(F)cc(Nc2cc[nH]n2)c1)c1ncnc2nc(C3CCCC3)[nH]c12 [Example 120, N-(3-((1H-pyrazol-3-yl)amino)-5-fluorobenzyl)-8-cyclopentyl-7H-purine-6-carboxamide]
DC50 (HIF-1α): 0.1 to 1 µM | IC50 (VEGF): > 10 µM

O=C(NCc1cc(F)cc(Nc2ccon2)c1)c1ncnc2nc(C3CCCC3)[nH]c12 [Example 121, 8-Cyclopentyl-N-(3-fluoro-5-(isoxazol-3-ylamino)benzyl)-7H-purine-6-carboxamide]
DC50 (HIF-1α): 0.1 to 1 µM | IC50 (VEGF): > 10 µM

N#Cc1ccc(Nc2cc(F)cc(CNC(=O)c3ncnc4nc(C5CCCC5)[nH]c34)c2)cc1 [Example 122, N-(3-((4-cyanophenyl)amino)-5-fluorobenzyl)-8-cyclopentyl-7H-purine-6-carboxamide]
DC50 (HIF-1α): < 0.1 µM | IC50 (VEGF): < 0.1 µM

CC(=O)c1ccc(-n2cc(-c3cc(F)cc(CNC(=O)c4ncnc5nc(C6CCCC6)[nH]c45)c3)cn2)cc1 [Example 123, N-(3-(1-(4-acetylphenyl)-1H-pyrazol-4-yl)-5-fluorobenzyl)-8-cyclopentyl-7H-purine-6-carboxamide]
DC50 (HIF-1α): < 0.1 µM | IC50 (VEGF): < 0.1 µM

O=C(NCc1cc(F)cc(-c2cnn(-c3ccoc3)c2)c1)c1ncnc2nc(C3CCCC3)[nH]c12 [Example 124, 8-Cyclopentyl-N-(3-fluoro-5-(1-(furan-3-yl)-1H-pyrazol-4-yl)benzyl)-7H-purine-6-carboxamide]
DC50 (HIF-1α): < 0.1 µM | IC50 (VEGF): 0.1 to 1 µM

O=C(NCc1cc(F)cc(-c2cnn(-c3cnn(Cc4ccccc4)c3)c2)c1)c1ncnc2nc(C3CCCC3)[nH]c12 [Example 125, N-(3-(1'-benzyl-1'H-[1,4'-bipyrazol]-4-yl)-5-fluorobenzyl)-8-cyclopentyl-7H-purine-6-carboxamide]
DC50 (HIF-1α): < 0.1 µM | IC50 (VEGF): 0.1 to 1 µM

NC(=O)c1ccc(Nc2cc(F)cc(CNC(=O)c3ncnc4nc(C5CCCC5)[nH]c34)c2)cc1 [Example 126, N-(3-((4-carbamoylphenyl)amino)-5-fluorobenzyl)-8-cyclopentyl-7H-purine-6-carboxamide]
DC50 (HIF-1α): < 0.1 µM | IC50 (VEGF): < 0.1 µM

CCOC(=O)c1ccc(Nc2cc(F)cc(CNC(=O)c3ncnc4nc(C5CCCC5)[nH]c34)c2)cc1 [Example 127, Ethyl 4-((3-((8-cyclopentyl-7H-purine-6-carboxamido)methyl)-5-fluorophenyl)amino)benzoate]
DC50 (HIF-1α): 0.1 to 1 µM | IC50 (VEGF): > 10 µM

Cn1cc(-n2cc(-c3cc(F)cc(CNC(=O)c4ncnc5nc(C6CCCC6)[nH]c45)c3)cn2)cn1 [Example 128, 8-Cyclopentyl-N-(3-fluoro-5-(1'-methyl-1'H-[1,4'-bipyrazol]-4-yl)benzyl)-7H-purine-6-carboxamide]
DC50 (HIF-1α): < 0.1 µM | IC50 (VEGF): < 0.1 µM

CN1CCC(Nc2cc(F)cc(CNC(=O)c3ncnc4nc(C5CCCC5)[nH]c34)c2)CC1 [Example 129, 8-Cyclopentyl-N-(3-fluoro-5-((1-methylpiperidin-4-yl)amino)benzyl)-7H-purine-6-carboxamide]
DC50 (HIF-1α): 1 to 10 µM | IC50 (VEGF): > 10 µM

O=C(NCc1cc(F)cc(Nc2ccsc2)c1)c1ncnc2nc(C3CCCC3)[nH]c12 [Example 130, 8-Cyclopentyl-N-(3-fluoro-5-(thiophen-3-ylamino)benzyl)-7H-purine-6-carboxamide]
DC50 (HIF-1α): < 0.1 µM | IC50 (VEGF): 0.1 to 1 µM

O=C(NCc1cc(F)cc(N2CCN(c3ccc(F)cc3)CC2)c1)c1ncnc2nc(C3CCCC3)[nH]c12 [Example 131, 8-Cyclopentyl-N-(3-fluoro-5-(4-(4-fluorophenyl)piperazin-1-yl)benzyl)-7H-purine-6-carboxamide]
DC50 (HIF-1α): 1 to 10 µM | IC50 (VEGF): > 10 µM

O=C(NCc1cc(F)cc(-c2nnc(-c3ccc(F)cc3)o2)c1)c1ncnc2nc(C3CCCC3)[nH]c12 [Example 132, 8-Cyclopentyl-N-(3-fluoro-5-(5-(4-fluorophenyl)-1,3,4-oxadiazol-2-yl)benzyl)-7H-purine-6-carboxamide]
DC50 (HIF-1α): 1 to 10 µM | IC50 (VEGF): > 10 µM

O=C(O)c1ccc(Nc2cc(F)cc(CNC(=O)c3ncnc4nc(C5CCCC5)[nH]c34)c2)cc1 [Example 133, 4-((3-((8-Cyclopentyl-7H-purine-6-carboxamido)methyl)-5-fluorophenyl)amino)benzoic acid]
DC50 (HIF-1α): 0.1 to 1 µM | IC50 (VEGF): > 10 µM

O=C(NCc1cc(F)cc(Nc2nnco2)c1)c1ncnc2nc(C3CCCC3)[nH]c12 [Example 134, N-(3-((1,3,4-oxadiazol-2-yl)amino)-5-fluorobenzyl)-8-cyclopentyl-7H-purine-6-carboxamide]
DC50 (HIF-1α): 0.1 to 1 µM | IC50 (VEGF): > 10 µM

O=C(NCc1cc(F)cc(NC2CCCC2)c1)c1ncnc2nc(C3CCCC3)[nH]c12 [Example 135, 8-Cyclopentyl-N-(3-(cyclopentylamino)-5-fluorobenzyl)-7H-purine-6-carboxamide]
DC50 (HIF-1α): 0.1 to 1 µM | IC50 (VEGF): > 10 µM

O=C(NCc1cc(F)cc(Nc2nncs2)c1)c1ncnc2nc(C3CCCC3)[nH]c12 [Example 136, N-(3-((1,3,4-thiadiazol-2-yl)amino)-5-fluorobenzyl)-8-cyclopentyl-7H-purine-6-carboxamide]
DC50 (HIF-1α): 0.1 to 1 µM | IC50 (VEGF): > 10 µM

O=C(NCc1cc(F)cc(N2CCCN(c3ccc(F)cc3)CC2)c1)c1ncnc2nc(C3CCCC3)[nH]c12 [Example 137, 8-Cyclopentyl-N-(3-fluoro-5-(4-(4-fluorophenyl)-1,4-diazepan-1-yl)benzyl)-7H-purine-6-carboxamide]
DC50 (HIF-1α): 0.1 to 1 µM | IC50 (VEGF): > 10 µM

O=C(NCc1cc(F)cc(-c2cnn(C3CCCC3)c2)c1)c1ncnc2nc(C3CCCC3)[nH]c12 [Example 138, 8-Cyclopentyl-N-(3-(1-cyclopentyl-1H-pyrazol-4-yl)-5-fluorobenzyl)-7H-purine-6-carboxamide]
DC50 (HIF-1α): < 0.1 µM | IC50 (VEGF): 0.1 to 1 µM
